Counter-ions that a name gives are not always drawn.
How the values were obtained:
S1P3 = biological target: T1, S1P3 (Homo sapiens, UniProt Q99500); test: 35S-GTPγS binding, S1P3 membranes; format: biochemical; details: membranes from CHO cells expressing S1P3; 60 min 30° C.
T1 construct: expressed in transfected cells; host or cells: CHO cells (membranes)
Protocol: (§1) Receptor binding assay: Membranes were prepared from CHO cells expressing S1P1 or S1P3 for use in ligand and […] binding studies. Cells were suspended in 50 mM TRIS, pH 7.4, 2 mM EDTA, 250 mM Sucrose (buffer A) and 1× Complete protease inhibitor cocktail (Roche), and disrupted at 4° C. by N2 decompression using a cell disruption bomb (Parr Instrument). Following centrifugation at 1000 RPM for 10 min at 4° C., the supernatant was suspended in buffer A and centrifuged again at 19000 RPM for 60 min at 4° C. The pellet was then suspended in 10 mM HEPES, pH 7.4, 1 mM EDTA, 250 mM Sucrose (Buffer B), and 1× Complete EDTA-free protease inhibitor cocktail and homogenized using a potter. Membranes were flash frozen in liquid N2 and stored at −80° C. [33P]sphingosine 1-phosphate (3000 Ci/mmol; American Radiolabeled Chemicals, Inc.) was added to test compounds in DMSO. Membranes and WGA SPA beads (GE Healthcare) were added to give a final volume of 100 μl in 96-well plates with assay concentrations of 25 pM or 10 pM [33P]sphingosine 1-phosphate (respectively for S1P1 or S1P3), 50 mM HEPES, pH 7.5, 5 mM MgCl2, 100 mM NaCl, 0.4% fatty acid-free BSA, 1-5 μg/well of proteins and 100 μg/well of WGA SPA beads. Binding was performed for 60 min at RT on a shaker and bound radioactivity was measured on a PerkinElmer 1450 MicroBeta counter. Specific binding was calculated by subtracting remaining radioactivity in the presence of 1000-fold excess of unlabeled S1P. Binding data were analyzed using the GraphPad Prism program.
Measurements of ^35S-GTPγS Binding: Membranes (1 to 10 μg protein) prepared as described above, were incubated in 96-well Scintiplates (PerkinElmer) with test compounds diluted in DMSO, in 180 μl of 20 mM HEPES, pH 7.4, 10 mM MgCl2, 2 μg/well Saponin, 0.2% fatty acid free BSA (Assay buffer), 140 mM NaCl and 1.7 μM GDP. The assay was initiated with the addition of 20 μl of 1.5 nM [35S]-GTPγS (1100 Ci/mmol; GE Healthcare) in assay buffer. After 60 min incubation at 30° C. on a shaker, plates were centrifuged for 10 min at 2000 RPM. Supernatant was discarded and membrane bound radioactivity was measured on a PerkinElmer 1450 MicroBeta counter. Triplicate samples were averaged and expressed as % response relative to S1P activation in absence of compound (n=2).

S1P1 [1] = biological target: T2, S1P1 (Homo sapiens, UniProt P21453); test: 35S-GTPγS binding, S1P1 membranes; format: biochemical; details: membranes from CHO cells expressing S1P1; 60 min 30° C.
T2 construct: expressed in transfected cells; host or cells: CHO cells (membranes)
Summary of the method: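 CHO-cell membranes expressing S1P1 or S1P3 (1-10 μg) incubated with compounds in 20 mM HEPES pH 7.4, 10 mM MgCl2, 140 mM NaCl, saponin, 0.2% BSA, 1.7 μM GDP and [35S]-GTPγS (20 μl of 1.5 nM added), 60 min at 30° C. Bound radioactivity expressed as % of S1P activation.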

S1P1 [2] = biological target: T2, S1P1; test: Receptor binding assay, [33P]sphingosine 1-phosphate, membranes, WGA SPA beads; details: membranes from CHO cells expressing S1P1; 25 pM [33P]S1P; 60 min RT
Protocol: as §1

T2 sequence (P21453 whole entry, species assumed): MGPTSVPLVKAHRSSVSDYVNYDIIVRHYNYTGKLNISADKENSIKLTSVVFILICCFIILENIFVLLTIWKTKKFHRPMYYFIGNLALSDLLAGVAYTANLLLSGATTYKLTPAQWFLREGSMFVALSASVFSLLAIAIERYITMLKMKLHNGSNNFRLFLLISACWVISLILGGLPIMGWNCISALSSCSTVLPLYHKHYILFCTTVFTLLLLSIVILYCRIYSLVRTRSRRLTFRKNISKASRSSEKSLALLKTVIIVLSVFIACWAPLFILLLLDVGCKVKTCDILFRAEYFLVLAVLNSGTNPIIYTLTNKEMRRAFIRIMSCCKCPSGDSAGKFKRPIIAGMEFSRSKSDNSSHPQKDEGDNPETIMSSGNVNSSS
T1 sequence (Q99500 whole entry, species assumed): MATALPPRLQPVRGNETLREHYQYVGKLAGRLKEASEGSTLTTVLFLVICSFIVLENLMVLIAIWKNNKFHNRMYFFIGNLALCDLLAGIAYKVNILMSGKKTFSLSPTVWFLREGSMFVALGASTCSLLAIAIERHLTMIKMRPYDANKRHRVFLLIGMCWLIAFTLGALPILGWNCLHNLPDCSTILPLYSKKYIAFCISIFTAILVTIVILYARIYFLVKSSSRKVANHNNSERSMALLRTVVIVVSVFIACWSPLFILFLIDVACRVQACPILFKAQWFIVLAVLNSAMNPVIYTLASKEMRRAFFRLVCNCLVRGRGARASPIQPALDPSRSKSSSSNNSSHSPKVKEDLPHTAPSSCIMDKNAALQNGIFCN

Structure (SMILES)	EC50 (S1P3) [nM]	EC50 (S1P1 [1]) [nM]	Ki (S1P1 [2]) [nM]
COCc1cc(-c2nc(-c3ccc(C(=O)O)c(F)c3)no2)ccc1-c1ccccc1OC [Example 79, 2-fluoro-4-{5-[2′-methoxy-2-(methoxymethyl)biphenyl-4-yl]-1,2,4-oxadiazol-3-yl}benzoic acid]	> 20000	208	74
COCc1cc(-c2nc(-c3ccc(C(=O)O)c(F)c3)no2)ccc1-c1ccccc1F [Example 81, 2-fluoro-4-{5-[2′-fluoro-2-(methoxymethyl)biphenyl-4-yl]-1,2,4-oxadiazol-3-yl}benzoic acid]	2780	115	28
COCc1cc(-c2nc(-c3ccc(C(=O)O)c(F)c3)no2)ccc1-c1cc(F)ccc1C [Example 84, 2-fluoro-4-{5-[5′-fluoro-2-(methoxymethyl)-2′-methylbiphenyl-4-yl]-1,2,4-oxadiazol-3-yl}benzoic acid]	2800	34	55
COCc1cc(-c2nc(-c3ccc(C(=O)O)c(F)c3)no2)ccc1-c1ccccc1C(F)(F)F [Example 86, 2-fluoro-4-{5-[2-(methoxymethyl)-2′-(trifluoromethyl)biphenyl-4-yl]-1,2,4-oxadiazol-3-yl}benzoic acid]	> 20000	155	48
COCc1cc(-c2nc(-c3cccc(C(=O)O)c3)no2)ccc1-c1ccccc1C [Example 92, 3-{5-[2-(methoxymethyl)-2′-methylbiphenyl-4-yl]-1,2,4-oxadiazol-3-yl}benzoic acid]	1250	63	37
COCc1cc(-c2nc(-c3ccc(C(=O)O)c(F)c3)no2)ccc1-c1cscc1C [Example 93, 2-fluoro-4-{5-[3-(methoxymethyl)-4-(4-methyl-3-thienyl)phenyl]-1,2,4-oxadiazol-3-yl}benzoic acid]	1380	18	10
COCc1cc(-c2nc(-c3ccc(C(=O)O)c(F)c3)no2)ccc1-c1cccc(C)c1C [Example 95, 2-fluoro-4-{5-[2-(methoxymethyl)-2′,3′-dimethylbiphenyl-4-yl]-1,2,4-oxadiazol-3-yl}benzoic acid]	4960	48	16
COCc1cc(-c2nc(-c3cc(F)c(C(=O)O)cc3F)no2)ccc1-c1ccccc1C [Example 97, 2,5-difluoro-4-{5-[2-(methoxymethyl)-2′-methylbiphenyl-4-yl]-1,2,4-oxadiazol-3-yl}benzoic acid]	1940	64	8
CCOc1cc(-c2nc(-c3ccc(C(=O)O)c(F)c3)no2)ccc1-c1ccccc1C [Example 102, 4-[5-(2-ethoxy-2′-methylbiphenyl-4-yl)-1,2,4-oxadiazol-3-yl]-2-fluorobenzoic acid]	1760	58	11
COCc1cc(-c2nc(-c3ccc(C(=O)O)c(F)c3)no2)ccc1N1CCCCC1C (stereo not drawn) [Example 114, 2-fluoro-4-{5-[3-(methoxymethyl)-4-(2-methylpiperidin-1-yl)phenyl]-1,2,4-oxadiazol-3-yl}benzoic acid]	2810	13	2.7
CCOC(=O)C1(NC(=O)c2ccc(-c3noc(-c4ccc(-c5ccccc5C)c(COC)c4)n3)cc2F)CC1 [Example 118, Ethyl 1-[(2-fluoro-4-{5-[2-(methoxymethyl)-2′-methylbiphenyl-4-yl]-1,2,4-oxadiazol-3-yl}benzoyl)amino]cyclopropanecarboxylate]	2160	7	2
COCc1cc(-c2nc(-c3ccc(C(=O)NCCC(=O)O)c(F)c3)no2)ccc1-c1ccccc1C [Example 119, N-(2-fluoro-4-{5-[2-(methoxymethyl)-2′-methylbiphenyl-4-yl]-1,2,4-oxadiazol-3-yl}benzoyl)-beta-alanine]	502	7.3	2
COCc1cc(-c2nc(-c3ccc(C(=O)NC(C)CC(=O)O)c(F)c3)no2)ccc1-c1ccccc1C (stereo not drawn) [Example 123, 3-[(2-fluoro-4-{5-[2-(methoxymethyl)-2′-methylbiphenyl-4-yl]-1,2,4-oxadiazol-3-yl}benzoyl)amino]butanoic acid]	1210	37.3	4
COCc1cc(-c2nc(-c3ccc(C(=O)NCC(=O)O)c(F)c3)no2)ccc1-c1ccccc1C [Example 124, N-(2-fluoro-4-{5-[2-(methoxymethyl)-2′-methylbiphenyl-4-yl]-1,2,4-oxadiazol-3-yl}benzoyl)glycine]	1000	22	2
COCc1cc(-c2nc(-c3ccc(C(=O)NCCCC(=O)O)c(F)c3)no2)ccc1-c1ccccc1C [Example 127, 4-[(2-fluoro-4-{5-[2-(methoxymethyl)-2′-methylbiphenyl-4-yl]-1,2,4-oxadiazol-3-yl}benzoyl)amino]butanoic acid]	1220	6	2.1
COCc1cc(-c2nc(-c3cccc(CN(C)CC(=O)O)c3)no2)ccc1-c1ccccc1C [Example 141, N-(3-{5-[2-(methoxymethyl)-2′-methylbiphenyl-4-yl]-1,2,4-oxadiazol-3-yl}benzyl)-N-methylglycine, Hydrochloride salt]	621	0.85	1.4
CCc1ccccc1-c1ccc(-c2nc(-c3cccc(CN(C)CC(=O)O)c3)no2)cc1COC [Example 143, N-(3-{5-[2′-ethyl-2-(methoxymethyl)biphenyl-4-yl]-1,2,4-oxadiazol-3-yl}benzyl)-N-methylglycine, hydrochloride salt]	281	0.6	0.8
COCc1cc(-c2nc(-c3ccc(F)c(CN(C)CC(=O)O)c3)no2)ccc1-c1ccccc1C [Example 146, N-(2-fluoro-5-{5-[2-(methoxymethyl)-2′-methylbiphenyl-4-yl]-1,2,4-oxadiazol-3-yl}benzyl)-N-methylglycine, Hydrochloride salt]	422	2.5	0.8
CCc1ccccc1-c1ccc(-c2nc(-c3ccc(F)c(CN(C)CC(=O)O)c3)no2)cc1COC [Example 147, N-(5-{5-[2′-ethyl-2-(methoxymethyl)biphenyl-4-yl]-1,2,4-oxadiazol-3-yl}-2-fluorobenzyl)-N-methylglycine, Hydrochloride salt]	754	1.5	2
COCc1cc(-c2nc(-c3cccc(CN(C)CC(=O)O)c3)no2)ccc1OC(C)C [Example 148, N-(3-{5-[4-isopropoxy-3-(methoxymethyl)phenyl]-1,2,4-oxadiazol-3-yl}benzyl)-N-methylglycine, Hydrochloride salt]	2350	4	0.7
COCc1cc(-c2nc(-c3cccc(CN(C)CCC(=O)O)c3)no2)ccc1-c1ccccc1C [Example 150, N-(3-{5-[2-(methoxymethyl)-2′-methylbiphenyl-4-yl]-1,2,4-oxadiazol-3-yl}benzyl)-N-methyl-beta-alanine]	95	0.5	0.3
COCc1cc(-c2nc(-c3cccc(CNC4(C(=O)O)CC4)c3)no2)ccc1-c1ccccc1C [Example 151, 1-[(3-{5-[2-(methoxymethyl)-2′-methylbiphenyl-4-yl]-1,2,4-oxadiazol-3-yl}benzyl)amino]cyclopropanecarboxylic acid]	175	4.8	6.5
COCc1cc(-c2nc(-c3ccc(OCC(=O)O)c(F)c3)no2)ccc1-c1ccccc1C [Example 166, (2-fluoro-{5-[2-(methoxymethyl)-2′-methylbiphenyl-4-yl]-1,2,4-oxadiazol-3-yl}phenoxy)acetic acid]	219	14	11
